Assay results from patent US5025024A, “Therapeutically active fluoro-substituted compound” (priority 1988, dated 1991).

Key:
[1] = Bioavailability in the Conscious Dog (AUC method); format: in vivo, Harrier dogs; settings: plasma, id vs iv, AUCid/AUCiv, read-out: Bioavailability measured by the AUC-method, F %, Dog
Protocol: (§1) Bioavailability is assessed by calculating the quotient between the area under plasma concentration (AUC) curve following intraduodenal (id) administration and intravenous (iv) administration from the rat or the dog. Low, therapeutically relevant doses, were used. This method is scientifically recognized as valid for assessing bioavailability (see for instance: M. Rowland and T. N. Tozer, Clinical Pharmacokinetics, 2nd ed., Lea & Febiger, London 1989, p 42).
(§2) Inhibition of Gastric Acid Secretion and Bioavailability in the Conscious Dog
(§3) Harrier dogs of either sex were used. They were equipped with a duodenal fistula for the administration of test compounds or vehicle and a cannulated ventricular fistula for the collection of gastric secretions.
Blood samples for the analysis of test compound concentration in plasma were taken at intervals up to 3 h after dosing. Plasma was separated and frozen within 30 min after collection. AUC (area under the plasma concentration-time curve), extrapolated to infinite time, was calculated by the linear trapezoidal rule. The systemic bioavailability (F%) after id administration was calculated as 100×(AUCid /AUCiv).

gastric acid secretion [2] = experiment: Inhibition of Gastric Acid Secretion in the Conscious Male Rat; format: in vivo, male rats of the Sprague-Dawley strain; settings: 2 h, pentagastrin and carbachol stimulation, second hour after administration
Protocol: (§4) Since the bioavailability model described above is time and labour intensive, and requires a large number of plasma analyses, also a rough screening model, based on relative potencies to inhibit acid secretion, has been used (see for instance: A. Goth, Medical Pharmacology, 7th ed., C. V. Mosby Company, Saint Louis 1974, p 19). Thus, the ratio (called "Bioavailability" in Table 3) between the ED50 at intravenous administration and the ED50 at intraduodenal administration was calculated.
(§5) The potency for inhibition of acid secretion has been measured in the male rat and the dog, both intravenously and intraduodenally. When it comes to relevance of the animal test data for potency of a given compound in man for the present type of compounds, it is believed that potency in man will correspond to a level somewhere between what is measured in the male rat and what is measured in the dog.
(§6) Inhibition of Gastric Acid Secretion in the Conscious Male Rat
(§7) Male rats of the Sprague-Dawley strain were used. They were equipped with cannulated fistulae in the stomach (lumen) and the upper part of the duodenum, for collection of gastric secretions and administration of test substances, respectively. A fourteen days recovery period after surgery was allowed before testing commenced.
(§8) Before secretory tests, the animals were deprived of food but not water for 20 h. The stomach was repeatedly washed through the gastric cannula, and 6 ml of Ringer-Glucose given s.c. Acid secretion was stimulated with a infusion during 3.5 h (1.2 ml/h, s.c.) of pentagastrin and carbachol (20 and 110 nmol/kg h, respectively), during which time gastric secretions were collected in 30-min fractions. Test substances or vehicle were given iv or id at 90 min after starting the stimulation, in a volume of 1 ml/kg. Gastric juice samples were titrated to pH 7.0 with NaOH, 0.1 mol/L, and acid output calculated as the product of titrant volume and concentration. Further calculations were based on group mean responses from 4-5 rats. The acid output during the periods after administration of test substances or vehicle were expressed as fractional responses, setting the acid output in the 30-min period preceding administration to 1.0. Percentage inhibition was calculated from the fractional responses elicited by test compound and vehicle. ED50 -values were obtained from graphical interpolation on log dose-response curves, or estimated from single-dose experiments assuming a similar slope for all dose-response curves. An estimation of the bioavailability was obtained by calculating the ratio ED50 iv/ED50 id. The results reported are based on gastric acid secretion during the second hour after drug/vehicle administration.

[3] = as above; format: in vivo, male rats of the Sprague-Dawley strain; settings: in vivo, ratio ED50 iv/ED50 id, read-out: "Bioavailability" measured by the Rough Screening Model, Rat ED50 iv/ED50 id
Protocol: as §4, §5, §6, §7, §8

[4] = Chemical Stability at pH 7; format: physicochemical; settings: pH 7, 37° C., aqueous buffer solution; for half-life: read-out: Chemical Stability at pH 7, half-life (t 1/2) (converted)
Protocol: The chemical stability of various compounds of the invention has been followed kinetically at low concentration at 37° C. in aqueous buffer solution at different pH values. The results in Table 3 show the half life (t1/2) at pH 7, that is the time period after which half the amount of the original compound remains unchanged.

[5] = Bioavailability in the Male Rat (AUC method); format: in vivo, male rats of the Sprague-Dawley strain; settings: id vs iv, 4 μmol/kg; for bioavailability: blood, 4 umol/kg, read-out: Bioavailability measured by the AUC-method, F %, Rat
Source text: The results from tests on two different animal species, rat and dog, vary in regard to measured level of bioavailability for the same compound. We believe that the rat is the more relevant species for bioavailability testing. This is based on our belief that liver metabolism has the most predominant impact upon bioavailability, and that the liver metabolic pattern in man for this type of compounds is quite similar to that of the male rat (more so than of the female rat and the dog). Moreover, test results of bioavailability in the male rat will tend to give a broader "spread" compared with the test results in the dog, and thus the male rat model will give more clear differences in bioavailability between different compounds. Stated in another way, the bioavailability as tested in the male rat can be expected to give a better estimate of the relative differences in man between different test compounds compared with the test results obtained when using the same compounds in the dog.
as §1
Bioavailability in the Male Rat
Male adult rats of the Sprague-Dawley strain were used. One day, prior to the experiments, all rats were prepared by cannulation of the left carotid artery under anaesthesia. The rats used for the intravenous experiments, were also cannulated in the jugular vein. […]
The area under the blood concentration vs time curve, AUC, was determined by the linear trapezoidal rule and extrapolated to infinity by dividing the last determined blood concentration by the elimination rate constant in the terminal phase. The systemic bioavailability (F%) following intraduodenal administration was calculated as [formula]

gastric acid secretion [6] = experiment: Inhibition of Gastric Acid Secretion in the Conscious Dog; format: in vivo, Harrier dogs; settings: for ED50: Canis lupus familiaris, dog, histamine-stimulated, acid output 2 h after dosing
Protocol: as §5, §2, §3
Before secretory tests the animals were fasted for about 18 h but water was freely allowed. Gastric acid secretion was stimulated by a 4 h infusion of histamine dihydrochloride (12 ml/h) at a dose producing about 80% of the individual maximal secretory response, and gastric juice collected in consecutive 30-min fractions. Test substance or vehicle was given id or iv 1 h after starting the histamine infusion, in a volume of 0.5 ml/kg body weight. The acidity of the gastric juice samples were determined by titration to pH 7.0, and the acid output calculated. The acid output in the collection periods after administration of test substance or vehicle were expressed as fractional responses, setting the acid output in the fraction preceding administration to 1.0. Percentage inhibition was calculated from fractional responses elicited by test compound and vehicle. ED50 -values were obtained by graphical interpolation on log dose-response curves, or estimated from single-dose experiments under the assumption of the same slope of the dose-response curve for all test compounds. All results reported are based on acid output 2 h after dosing.

[7] = id, read-out: Inhibition of acid secretion, Rat ED50, id
[8] = iv, read-out: Inhibition of acid secretion, Rat ED50, iv

SMILES | bioavailability [1] [%] | ED50 (gastric acid secretion [2]; [7]) [µmol/kg] | ED50 (gastric acid secretion [2]; [8]) [µmol/kg] | bioavailability [3] [%] | Chemical Stability at pH 7, half-life (t 1/2) [4] [h] | half-life [4] [h] | bioavailability [5] [%] | ED50 (gastric acid secretion [6]; id, read-out: Inhibition of acid secretion, Dog ED50, id) [µmol/kg] | ED50 (gastric acid secretion [6]; iv, read-out: Inhibition of acid secretion, Dog ED50, iv) [µmol/kg] | Bioavailability measured by the AUC-method, F %, Rat [5] [%] | inhibition (of acid secretion), Dog 1 (gastric acid secretion [6]; Dog 1, 3 μmol/kg, id) [%] | inhibition (of acid secretion), Dog 2 (gastric acid secretion [6]; Dog 2, 3 μmol/kg, id) [%]
COc1ccnc(C[S+]([O-])c2nc3c(F)cccc3[nH]2)c1 (stereo not drawn) [Example 1, 4-fluoro-2-[[(4-methoxy-2-pyridinyl)methyl]sulfinyl]-1H-benzimidazole] | 95 | 2.4 | 0.96 | 40 | 23 | 23 | 96 | 0.9 | 0.8 | – | – | –
CC(C)Oc1ccnc(C[S+]([O-])c2nc3cc(F)ccc3[nH]2)c1 (stereo not drawn) [Ref., 5-fluoro-2-[[(4-isopropoxy-2-pyridinyl)methyl]-sulfinyl]-1H-benzimidazole] | – | 4 | 1.8 | 45 | 14 | 14 | 31 | – | – | 31 | 95 | 98
